The values that follow are results of earlier work, collected in patent publication US20170080084A1, “OIL/SURFACTANT MIXTURES FOR SELF-EMULSIFICATION” (priority 2014, published 2017).

The conditions of the series: readily available values.
For the compound `CCCCCCCCCCCCOS(=O)(=O)[O-].[Na+]` [SDS], the HLB is listed as 40.

Regarding Sorbitan monooleate, the HLB is reported as 4.3.

Regarding polyoxyethylene (10) lauryl ether, the HLB is recorded as 17.

For the compound polyoxyethylene cetostearyl ether, the HLB is reported as 13.5.

In the case of “polyoxyethylene sorbitan monooleate [polysorbate 80]”, the HLB is given as 15.
